The source of these data is article PMC6283615, “Anilinoquinoline based inhibitors of trypanosomatid proliferation” (PLoS Neglected Tropical Diseases, 2018).

Values after ≈ are worked out from the molar mass of the structure shown. Like-named read-outs stand apart in the source and are kept apart here.

The subject of one data set is L. major amastigote. Nature of the data set: L. major intracellular amastigote luciferase assay in RAW 264.7 macrophages. The class given is cell-based, Leishmania major. The note with it: intracellular amastigotes in RAW 264.7 macrophages, 96 h. The method, then: Amastigote assays were performed using pLEXSY-hyg2-luciferase L. major transfected promastigotes and the murine RAW 264.7 macrophage cell line (ATCC TIB-71, Manassas, VA). Briefly, luciferase-expressing promastigotes of each Leishmania species were generated by adding a luciferase encoding region to the pLEXSY-hyg2 vector (Jena Biosciences, Germany) as described. One μg of the linearized pLEXSY-hyg2-luciferase vector were electroporated (480 V, 13 Ω, and 500 μF) into 4×10^7 Leishmania promastigotes. Selection for stable promastigote transfectants was carried out using hygromycin B (100 μg/mL). RAW 264.7 macrophages were maintained in growth medium (Dulbecco’s Modified Eagle’s Medium supplemented with heat-inactivated 10% FBS (Life Technologies)). Cells were harvested and resuspended in growth medium at 2.0×10^5 cells/mL, and 1×10^4 cells/well were dispensed (final volume 50 μL) in each well of a 384 well tissue-culture treated white plate using a EVO Freedom liquid handling system (Tecan, Durham, NC). Plates were incubated at 37°C in 5% CO2 for 24 h after which the culture medium was removed from each well using the EVO Freedom liquid handler. Metacyclic phase pLEXSY-hyg2-luciferase-Leishmania promastigotes (MOI = 1:10 L. major) were added to each assay plate well and allowed to infect the RAW 264.7 macrophages. After an overnight incubation, the growth medium was aspirated and each well was washed three times with 40 μL of fresh growth medium to remove non-internalized promastigotes. After the third wash, 69.2 μL of growth medium was added to each well. Compound dilutions (final concentration ranges 0.5–10,000 ng/mL) were generated and dispensed using the liquid handling system. Compound treated plates were incubated at 37°C in 5% CO2 for 96 h. After incubation, 7.5 μL of a luciferin solution (Caliper Life Science, Waltham, MA) diluted to 150 μg/mL was added to each well, and the plates were incubated for 30 min at 37°C in the dark. Data were captured using an Infinite M200 plate reader (Tecan). EC50s were generated for each concentration response test using GraphPad Prism software 6.0.

The subject of data set [1] is T. b. brucei (strain 427). Nature of the data set: T. b. brucei proliferation assay (PrestoBlue, 48 h). The class given is cell-based, Trypanosoma brucei brucei. The note with it: Trypanosoma brucei. The method, then: The assay was performed following a previously reported procedure. Briefly, in a 96-well plate, compounds were added in triplicates at 50 μM and in serial dilutions 1:2 in HMI-9 medium. To each well, 100 μL of 2.5×10^3 T. b. brucei (strain 427, received as a gift from Dr. C. C. Wang at UCSF) in HMI-9 medium was were added and incubated at 37°C, 5% CO2 for 48 h. Following incubation, 20 μL of PrestoBlue were added to each well and incubated for additional 4 h. Fluorescence was read at 530 nm excitation and 590 nm emission.

Data set [2] concerns T. cruzi amastigote (Tulahuen strain expressing β-galactosidase). Kind of data set: Intracellular T. cruzi assay in 3T3 cells (beta-galactosidase, 96 h). The class given is cell-based, Trypanosoma cruzi. The note with it: read-out: T. cruzi amastigote EC50. The method, then:
In a 96-well plate, 5×10^4 3T3 cells in DMEM without phenol red supplemented with 2% FBS were added to each well. Cells were incubated for 2 h to allow for attachment. Compounds were added in triplicates at 50 μM and in serial dilutions 1:2. To each well, 5×10^4 T. cruzi trypomastigotes (Tulahuen strain expressing β-galactosidase) were added and incubated at 37°C, 5% CO2 for 96 h. Following incubation, 50 μL of 500 μM chlorophenol Red-β-D-galactopyranoside (CPRG) in phosphate-buffered saline with 0.5% NP40 was added to each well and incubated at 37°C, 5% CO2 for 4 h. Absorbance was read at 590–595 nm.

The next data set in a line: Aqueous solubility. Type of data set: physicochemical.
Data set [3] can be described thus: Human plasma protein binding. The class given is in vitro ADME. The note with it: for fraction unbound: read-out: Human PPB (converted).
Another data set can be described thus: LogD7.4. The class given is physicochemical. The note with it: pH 7.4.
Data set [4] in a line: Human liver microsome intrinsic clearance. The class given is in vitro ADME. The following applies: liver microsomes. (Liver microsomes are a subcellular fraction often used to study metabolism.)
Data set [5] in a line: Rat hepatocyte intrinsic clearance. Type of data set: in vitro ADME.
The mark [6] stands for this setting: Trypanosoma cruzi, TULAHUEN, NIH3T3, 96 h.
The mark [7] stands for this setting: intracellular in 3T3 cells, 96 h.

A word on the EC50: it is the concentration needed to bring the measured effect to its halfway point. In general, solubility refers to the concentration that dissolves in the medium under given conditions. Low values mean little dissolved substance, high ones much dissolved substance. As a reminder, the logD is the decadic logarithm of the distribution of all forms, ionised or not, between an organic phase and buffer at a given pH. With `COc1cnc(Nc2ccnc3cc(-c4ccc(S(=O)(=O)N5CCN(C)CC5)cc4)ccc23)cn1` [Compound 3], the EC50 in the data set with L. major amastigote (Leishmania major, RAW264.7) worked out at 19000 nM; in data set [1], 620 nM; in data set [2] (setting [6]), 9700 nM. The amount in solution in “Aqueous solubility” (solubility) came to 3.2 µM (≈ 1.57 µg/mL). Besides, the fraction unbound in data set [3] is 0.03. This molecule also displayed a logD in the data set “LogD7.4” of 4.2.
A word on the microsomal CLint: it is the rate of metabolic loss divided by the concentration. Lower therefore signals greater metabolic stability. The term hepatocyte CLint denotes the rate of metabolic loss divided by the concentration. Low readings indicate slow turnover, high ones rapid turnover. For `CN1CCN(c2ccnc(Nc3ccc4c(Nc5ccc(OCc6cccc(F)c6)c(Cl)c5)ccnc4c3)n2)CC1` [Compound 19], the EC50 with L. major amastigote (Leishmania major, RAW264.7) is 2500 nM; in data set [1] it was 120 nM; in data set [2] (setting [6]), 2700 nM. In addition, the solubility in the data set “Aqueous solubility” stood at 1 µM (≈ 0.57 µg/mL). In addition, the microsomal CLint in data set [4] amounted to 21 µL/min/mg. This molecule also returned a hepatocyte CLint in data set [5] (hepatocytes) of 4.6 µL/min/1e6 cells. In “LogD7.4”, this molecule showed a logD of 4.7.
`CN1CCN(c2ncc(Nc3ccc4c(Nc5ccc(OCc6cccc(F)c6)c(Cl)c5)ccnc4c3)cn2)CC1` [Compound 18]: the EC50 in the data set on L. major amastigote (Leishmania major, RAW264.7) was found to be 870 nM; in data set [1], 160 nM; in data set [2] (setting [6]), 2700 nM.
For `CN1CCN(c2ccc(Nc3ccc4c(Nc5ccc(OCc6cccc(F)c6)c(Cl)c5)ccnc4c3)cc2)CC1` [Compound 17] the same measures were 1200 nM, 120 nM and 2100 nM.
`CN1CCN(c2nccc(Nc3ccc4c(Nc5cnccn5)ccnc4c3)n2)CC1` [NEU-2094]: the concentration for a half-maximal effect (EC50) in data set [2] (setting [7]) is > 50000 nM. This molecule showed a LogD7.4 in the data set “LogD7.4” of 2.9.
In the case of `C[C@@H]1[C@H](O)[C@@H](C)/C=C/C=C/C=C/C=C/C=C/C=C/C=C/[C@H](O[C@@H]2O[C@H](C)[C@@H](O)[C@H](N)[C@@H]2O)C[C@@H]2O[C@](O)(C[C@@H](O)C[C@@H](O)[C@H](O)CC[C@@H](O)C[C@@H](O)CC(=O)O[C@H]1C)C[C@H](O)[C@H]2C(=O)O` [Amphotericin B, reference compound], the EC50 was 36 nM in the data set on L. major amastigote (Leishmania major, RAW264.7) and 480 nM in data set [2] (setting [6]).
Consider `CN1CCN(S(=O)(=O)c2ccc(-c3ccc4c(Nc5cnccn5)ccnc4c3)cc2)CC1` [Compound 4], for which the EC50 turned out to be 20000 nM with L. major amastigote (Leishmania major, RAW264.7); 910 nM in data set [1]; 16000 nM in data set [2] (setting [6]). Besides, the solubility in “Aqueous solubility” was 4.2 µM (≈ 1.93 µg/mL). Also, in data set [3], the fraction unbound is 0.06. In “LogD7.4”, the logD is 3.2.
Turning to `CN1CCN(S(=O)(=O)c2ccc(-c3ccc4c(Nc5ccc(Cl)cn5)ccnc4c3)cc2)CC1` [Compound 5], the EC50 in the data set on L. major amastigote (Leishmania major, RAW264.7) was 2100 nM; in data set [1], 270 nM; in data set [2] (setting [6]) it was 2800 nM. In addition, in “Aqueous solubility”, the solubility is < 1 µM. For the same molecule, the fraction unbound in data set [3] was < 0.01.
`COc1ncc(Nc2ccnc3cc(-c4ccc(S(=O)(=O)N5CCN(C)CC5)cc4)ccc23)cn1` [Compound 2]: the EC50 in the data set with L. major amastigote (Leishmania major, RAW264.7) was 3100 nM; in data set [1], 2500 nM; in data set [2] (setting [6]), > 50000 nM. In “Aqueous solubility”, this molecule displayed a solubility of 7.3 µM (≈ 3.58 µg/mL). Also, the fraction unbound in data set [3] was 0.12. In the data set “LogD7.4”, this molecule gave a logD of 3.1.
Turning to `CN1CCN(c2nccc(Nc3ccc4c(Nc5ccc(OCc6cccc(F)c6)c(Cl)c5)ccnc4c3)n2)CC1` [Compound 20], the EC50 in the data set on L. major amastigote (Leishmania major, RAW264.7) was 1200 nM; in data set [1] it was 98 nM; in data set [2] (setting [6]), 4300 nM.
Take `Cc1ccc(Nc2ccnc3cc(-c4ccc(S(=O)(=O)N5CCN(C)CC5)cc4)ccc23)cc1Cl` [Compound 8]: the EC50 was 2400 nM in the data set on L. major amastigote (Leishmania major, RAW264.7); 650 nM in data set [1]; > 50000 nM in data set [2] (setting [6]). Besides, the microsomal CLint in data set [4] was found to be 290 µL/min/mg.
For `CN1CCN(c2ccnc(Nc3ccc4c(Nc5cnccn5)ccnc4c3)n2)CC1` [NEU-2091], the EC50 in data set [2] (setting [7]) was > 20000 nM. Further, the “Rat Hepatocyte CLint” value in data set [5] stood at 9.3 μL/min/10^6 cells. Besides, the LogD7.4 in the data set “LogD7.4” was found to be 2.8.
On L. major amastigote, `CN1CCN(c2ccc(Nc3ccc4c(Nc5cnccn5)ccnc4c3)cc2)CC1` [NEU-2096] came in with an EC50 of 7900 nM. Besides, the “Human PPB” value in data set [3] is reported as 88%. The “Rat Hepatocyte CLint” value in data set [5] is listed as 10 μL/min/10^6 cells. In addition, in “LogD7.4”, the LogD7.4 amounted to 2.2.
